Assay results reported in patent publication US20240383901A1, “SUBSTITUTED PYRROLO[2,3-D]PYRIMIDINES, THEIR PREPARATION AND THEIR THERAPEUTIC APPLICATION” (SANOFI, priority 2021, published 2024).

Key:
full-length LRRK2 G2019S = biological target: T1, full-length LRRK2 G2019S (Homo sapiens, UniProt Q5S007, G2019S); test: LRRK2-G2019S kinase activity assay (Lanthascreen TR-FRET); assay type: biochemical; conditions: 1.1 mM ATP
T1 construct: DYKDDDDK (FLAG)
Protocol: (§1) The potency of compounds was evaluated in vitro using the Lanthascreen® technology (ThermoFisher Scientific).
(§2) In a typical experiment, the reaction assay buffer contains 50 mM Tris pH8.2, 1 mM EGTA, 2.5 mM MgCl2, 0.05% Triton X100, 0.15% BSA and 1 mM DTT. The detection of the assay is performed using 1 nM Terbium labeled anti-phospho-LRRKtide (ThermoFisher Scientific) diluted in a TR-FRET buffer (ThermoFisher Scientific).
(§3) The experimental procedure was performed with Greiner small volume® 384-well. […] The working solution of compounds was prepared in a separate Greiner microplate.
(§4) The kinase reaction was initiated by addition of the ATP/LRRKtide substrate mix diluted in the reaction assay buffer. The reaction mix was incubated for at least 10 minutes at room temperature (initial velocity conditions). Reaction was stopped by addition of Terbium labeled anti-phospho-LRRKtide diluted into the detection buffer supplemented with EDTA (ThermoFisher Scientific). Plates are incubated for at least 30 minutes at room temperature and read on an Envision™ multimode plate reader (PerkinElmer) with LanthaScreen™. The TR-FRET 520:495 nm emission ratio was calculated and used to determine the IC50 value from a dose response curve fit to the 4-parameter logistic equation. The activity with respect to LRRK2 kinase in this test is given by the concentration which inhibits 50% of the LRRK2 activity (or IC50) in nM.

[1] = biological target: T2, full-length LRRK2 wild type (Homo sapiens, UniProt Q5S007); test: LRRK2 WT assay (Assay A, Lanthascreen TR-FRET, 500 uM ATP); assay type: biochemical; conditions: Assay A (values without *)
T2 construct: DYDDDDK tagged full-length LRRK2 wild type is used
T2 sequence (Q5S007 whole entry): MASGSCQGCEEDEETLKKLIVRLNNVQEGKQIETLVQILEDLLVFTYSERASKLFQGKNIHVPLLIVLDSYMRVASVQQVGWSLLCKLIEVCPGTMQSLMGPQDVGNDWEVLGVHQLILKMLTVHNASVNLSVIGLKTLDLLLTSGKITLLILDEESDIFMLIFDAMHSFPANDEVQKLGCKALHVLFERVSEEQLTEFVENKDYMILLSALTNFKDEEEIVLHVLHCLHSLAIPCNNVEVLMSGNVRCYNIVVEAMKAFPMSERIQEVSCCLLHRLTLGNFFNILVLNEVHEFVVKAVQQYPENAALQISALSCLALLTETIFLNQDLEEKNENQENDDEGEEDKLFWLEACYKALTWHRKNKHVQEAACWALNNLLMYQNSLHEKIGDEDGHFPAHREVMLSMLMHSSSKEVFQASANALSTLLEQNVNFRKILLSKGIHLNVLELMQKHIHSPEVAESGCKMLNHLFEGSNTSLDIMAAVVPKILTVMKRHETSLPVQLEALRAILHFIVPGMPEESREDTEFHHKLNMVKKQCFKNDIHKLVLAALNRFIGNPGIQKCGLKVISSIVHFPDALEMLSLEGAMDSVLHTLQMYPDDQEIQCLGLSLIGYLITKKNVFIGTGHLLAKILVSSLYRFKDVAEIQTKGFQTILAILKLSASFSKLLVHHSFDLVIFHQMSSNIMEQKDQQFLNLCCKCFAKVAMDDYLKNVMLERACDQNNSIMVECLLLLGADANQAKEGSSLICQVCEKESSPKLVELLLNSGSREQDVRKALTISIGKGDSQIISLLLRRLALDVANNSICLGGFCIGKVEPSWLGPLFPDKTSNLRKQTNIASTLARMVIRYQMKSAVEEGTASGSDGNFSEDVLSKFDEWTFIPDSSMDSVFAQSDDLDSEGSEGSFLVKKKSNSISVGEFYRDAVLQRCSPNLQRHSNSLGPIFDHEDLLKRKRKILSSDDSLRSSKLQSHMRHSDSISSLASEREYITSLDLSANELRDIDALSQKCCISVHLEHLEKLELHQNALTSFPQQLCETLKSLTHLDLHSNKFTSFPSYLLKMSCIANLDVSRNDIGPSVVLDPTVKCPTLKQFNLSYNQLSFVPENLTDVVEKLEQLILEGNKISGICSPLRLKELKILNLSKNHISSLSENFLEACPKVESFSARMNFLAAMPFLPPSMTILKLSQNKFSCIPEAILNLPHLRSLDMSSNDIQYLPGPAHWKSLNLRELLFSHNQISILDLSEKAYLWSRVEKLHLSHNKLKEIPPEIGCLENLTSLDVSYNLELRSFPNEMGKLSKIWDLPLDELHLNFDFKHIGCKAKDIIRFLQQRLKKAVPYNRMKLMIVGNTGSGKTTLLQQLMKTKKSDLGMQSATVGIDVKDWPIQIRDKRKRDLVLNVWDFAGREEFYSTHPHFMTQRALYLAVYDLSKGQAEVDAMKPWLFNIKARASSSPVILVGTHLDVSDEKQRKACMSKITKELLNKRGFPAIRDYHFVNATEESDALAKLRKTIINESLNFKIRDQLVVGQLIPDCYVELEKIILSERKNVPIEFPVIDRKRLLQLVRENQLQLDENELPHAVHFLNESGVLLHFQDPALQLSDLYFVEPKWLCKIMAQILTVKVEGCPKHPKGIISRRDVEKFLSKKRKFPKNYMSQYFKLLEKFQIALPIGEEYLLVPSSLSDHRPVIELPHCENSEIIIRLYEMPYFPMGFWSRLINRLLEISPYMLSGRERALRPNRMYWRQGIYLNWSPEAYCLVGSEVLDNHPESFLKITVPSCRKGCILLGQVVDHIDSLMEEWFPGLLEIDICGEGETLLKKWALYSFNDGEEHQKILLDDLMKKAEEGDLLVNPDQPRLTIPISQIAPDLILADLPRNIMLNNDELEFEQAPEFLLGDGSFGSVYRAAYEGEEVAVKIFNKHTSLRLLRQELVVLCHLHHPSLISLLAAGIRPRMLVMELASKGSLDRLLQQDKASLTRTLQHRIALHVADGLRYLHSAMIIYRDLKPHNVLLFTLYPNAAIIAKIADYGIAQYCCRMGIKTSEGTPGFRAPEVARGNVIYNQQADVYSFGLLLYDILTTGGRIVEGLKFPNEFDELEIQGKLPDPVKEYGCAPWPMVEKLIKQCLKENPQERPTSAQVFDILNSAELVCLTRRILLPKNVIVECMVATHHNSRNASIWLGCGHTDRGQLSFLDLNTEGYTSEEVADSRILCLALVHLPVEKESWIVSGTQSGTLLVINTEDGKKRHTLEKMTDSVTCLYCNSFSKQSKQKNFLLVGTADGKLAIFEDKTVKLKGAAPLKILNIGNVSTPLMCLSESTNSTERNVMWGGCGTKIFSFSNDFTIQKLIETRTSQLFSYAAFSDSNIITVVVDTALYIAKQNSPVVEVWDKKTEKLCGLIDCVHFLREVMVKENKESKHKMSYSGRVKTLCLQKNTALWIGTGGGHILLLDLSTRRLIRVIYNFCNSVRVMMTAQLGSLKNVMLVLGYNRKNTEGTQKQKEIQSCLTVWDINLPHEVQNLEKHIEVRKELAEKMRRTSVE
Protocol: as §1, §2, §3, §4

T1 sequence (Q5S007 whole entry G2019S): as the sequence (Q5S007 whole entry) above, with G2019S counted along it

SMILES	IC50 (full-length LRRK2 G2019S) [nM]	IC50 [1] [nM]
C[C@H]1COC[C@H]1n1c(C#N)cc2cnc(Nc3cn(C)nc3OC3COC3)nc21 (single isomer, unassigned) [Example 46, 2-((1-methyl-3-(oxetan-3-yloxy)-1 H-pyrazol-4-yl)amino)-7-((cis)-4-methyltetrahydrofuran-3-yl)-7H-pyrrolo[2,3-d]pyrimidine-6-carbonitrile]	413	489
CO[C@H]1COC[C@H]1n1c(C#N)cc2cnc(Nc3cn(C(C)C#N)nc3OC(C)C)nc21 (single isomer, unassigned) [Example 56]	4	7
C[C@@H]1OC[C@H]1n1c(C#N)cc2cnc(Nc3cn(C)nc3OC3COC3)nc21 (single isomer, unassigned) [Example 76, 7-[(trans)-2-methyloxetan-3-yl]-2-[[1-methyl-3-(oxetan-3-yloxy)pyrazol-4-yl]amino]pyrrolo[2,3-d]pyrimidine-6-carbonitrile]	200	241
C[C@@H]1OC[C@H]1n1c(C#N)cc2cnc(Nc3cn(C)nc3OC3COC3)nc21 (single isomer, unassigned) [Example 77, 7-[(trans)-2-methyloxetan-3-yl]-2-[[1-methyl-3-(oxetan-3-yloxy)pyrazol-4-yl]amino]pyrrolo[2,3-d]pyrimidine-6-carbonitrile]	21	34
CC(C)Oc1nn(C)cc1Nc1ncc2cc(C#N)n([C@@H]3CO[C@H]3C)c2n1 (single isomer, unassigned) [Example 78, 7-[(trans)-2-methyloxetan-3-yl]-2-[(1-methyl-3-propan-2-yloxypyrazol-4-yl)amino]pyrrolo[2,3-d]pyrimidine-6-carbonitrile]	64	79
CC(C)Oc1nn(C)cc1Nc1ncc2cc(C#N)n([C@@H]3CO[C@H]3C)c2n1 (single isomer, unassigned) [Example 79, 7-[(trans)-2-methyloxetan-3-yl]-2-[(1-methyl-3-propan-2-yloxypyrazol-4-yl)amino]pyrrolo[2,3-d]pyrimidine-6-carbonitrile]	6	9
COC[C@H](C)n1c(C#N)cc2cnc(Nc3cn(C)nc3O[C@@H]3CO[C@H]3C)nc21 (single isomer, unassigned) [Example 88]	12	20
[2H]C([2H])([2H])n1cc(Nc2ncc3cc(C#N)n([C@@H](C)COC)c3n2)c(O[C@@H]2CO[C@H]2C)n1 (single isomer, unassigned) [Example 90]	8	16
[2H]C([2H])([2H])n1cc(Nc2ncc3cc(C#N)n([C@@H](C)COC)c3n2)c(OC2COC2(C)C)n1 (single isomer, unassigned) [Example 99]	36	34
[2H]C([2H])([2H])n1cc(Nc2ncc3cc(C#N)n([C@@H](C)COC)c3n2)c(OC2COC2(C)C)n1 (single isomer, unassigned) [Example 100]	39	40
[2H]C([2H])([2H])n1cc(Nc2ncc3cc(C#N)n([C@@H](C)COC)c3n2)c(OC2CCOC2)n1 (single isomer, unassigned) [Example 101]	34	40
[2H]C([2H])([2H])n1cc(Nc2ncc3cc(C#N)n([C@@H](C)COC)c3n2)c(OC2CCOC2)n1 (single isomer, unassigned) [Example 102]	41	39
[2H]C([2H])([2H])n1cc(Nc2ncc3cc(C#N)n([C@H]4COC[C@@H]4C)c3n2)c(OC2COC(C)(C)C2)n1 (single isomer, unassigned) [Example 109]	38	26
[2H]C([2H])([2H])n1cc(Nc2ncc3cc(C#N)n([C@H]4COC[C@@H]4C)c3n2)c(OC2COC(C)(C)C2)n1 (single isomer, unassigned) [Example 110]	8	4
[2H]C([2H])([2H])n1cc(Nc2ncc3cc(C#N)n([C@H]4COC[C@@H]4C)c3n2)c(OC2CCOC2)n1 (single isomer, unassigned) [Example 111]	22	17
[2H]C([2H])([2H])n1cc(Nc2ncc3cc(C#N)n([C@H]4COC[C@@H]4C)c3n2)c(OC2CCOC2)n1 (single isomer, unassigned) [Example 112]	16	13
[2H]C([2H])([2H])n1cc(Nc2ncc3cc(C#N)n([C@H]4COC[C@@H]4C)c3n2)c(O[C@@H]2COC[C@H]2O)n1 (single isomer, unassigned) [Example 114]	28	20

SMILES	IC50 (full-length LRRK2 G2019S) [nM]	IC50 [1] [nM]
[2H]C([2H])([2H])n1cc(Nc2ncc3cc(C#N)n([C@H]4COC[C@@H]4C)c3n2)c(O[C@@H]2COC[C@H]2O)n1 (single isomer, unassigned) [Example 115]	17	14
[2H]C([2H])([2H])n1cc(Nc2ncc3cc(C#N)n([C@@H](C)COC)c3n2)c(O[C@@H]2COC[C@H]2O)n1 (single isomer, unassigned) [Example 116]	50	43
[2H]C([2H])([2H])n1cc(Nc2ncc3cc(C#N)n([C@@H](C)COC)c3n2)c(O[C@@H]2COC[C@H]2O)n1 (single isomer, unassigned) [Example 117]	50	34
[2H]C([2H])([2H])n1cc(Nc2ncc3cc(C#N)n([C@H]4COC[C@@H]4C)c3n2)c(OC2COC2(C)C)n1 (single isomer, unassigned) [Example 118]	29	14
[2H]C([2H])([2H])n1cc(Nc2ncc3cc(C#N)n([C@H]4COC[C@@H]4C)c3n2)c(OC2COC2(C)C)n1 (single isomer, unassigned) [Example 119]	17	12
[2H]C([2H])([2H])n1cc(Nc2ncc3cc(C#N)n(C4CCOCC4)c3n2)c(OC2COC2(C)C)n1 (single isomer, unassigned) [Example 120, 2-((3-((2,2-dimethyloxetan-3-yl)oxy)-1-(methyl-d3)-1 H-pyrazol-4-yl)amino)-7-(tetrahydro-2H-pyran-4-yl)-7H-pyrrolo[2,3-d]pyrimidine-6-carbonitrile]	179	173
[2H]C([2H])([2H])n1cc(Nc2ncc3cc(C#N)n(C4CCOCC4)c3n2)c(OC2COC2(C)C)n1 (single isomer, unassigned) [Example 121, 2-((3-((2,2-dimethyloxetan-3-yl)oxy)-1-(methyl-d3)-1 H-pyrazol-4-yl)amino)-7-(tetrahydro-2H-pyran-4-yl)-7H-pyrrolo[2,3-d]pyrimidine-6-carbonitrile]	181	133
COCC(C)n1cc(Nc2ncc3cc(C#N)n(C4CCOCC4)c3n2)c(OC2CC2)n1 (single isomer, unassigned) [Example 126, 2-((3-cyclopropoxy-1-(1-methoxypropan-2-yl)-1 H-pyrazol-4-yl)amino)-7-(tetrahydro-2H-pyran-4-yl)-7H-pyrrolo[2,3-d]pyrimidine-6-carbonitrile]	83	77
COCC(C)n1cc(Nc2ncc3cc(C#N)n(C4CCOCC4)c3n2)c(OC2CC2)n1 (single isomer, unassigned) [Example 127, 2-((3-cyclopropoxy-1-(1-methoxypropan-2-yl)-1 H-pyrazol-4-yl)amino)-7-(tetrahydro-2H-pyran-4-yl)-7H-pyrrolo[2,3-d]pyrimidine-6-carbonitrile]	183	144
COCC(C)n1cc(Nc2ncc3cc(C#N)n([C@@H](C)COC)c3n2)c(OC2COC2)n1 (single isomer, unassigned) [Example 129]	37	41
COCC(C)n1cc(Nc2ncc3cc(C#N)n([C@@H](C)COC)c3n2)c(OC2COC2)n1 (single isomer, unassigned) [Example 130]	57	61
[2H]C([2H])([2H])n1cc(Nc2ncc3cc(C#N)n([C@@H](C)COC)c3n2)c(OC2C(C)(C)C(O)C2(C)C)n1 (single isomer, unassigned) [Example 132]	32	36
[2H]C([2H])([2H])n1cc(Nc2ncc3cc(C#N)n([C@@H](C)COC)c3n2)c(OC2C(C)(C)C(O)C2(C)C)n1 (single isomer, unassigned) [Example 133]	14	13
[2H]C([2H])([2H])n1cc(Nc2ncc3cc(C#N)n([C@@H](C)COC)c3n2)c(OC2CC(O)C2(C)C)n1 (single isomer, unassigned) [Example 134]	5	3
[2H]C([2H])([2H])n1cc(Nc2ncc3cc(C#N)n([C@@H](C)COC)c3n2)c(OC2CC(O)C2(C)C)n1 (single isomer, unassigned) [Example 135]	39	43
[2H]C([2H])([2H])n1cc(Nc2ncc3cc(C#N)n([C@@H](C)COC)c3n2)c(O[C@@H]2COC[C@@H]2O)n1 (single isomer, unassigned) [Example 136]	81	95
[2H]C([2H])([2H])n1cc(Nc2ncc3cc(C#N)n(C4COCC4C)c3n2)c(OC2CCC2(C)O)n1 (single isomer, unassigned) [Example 141]	54	44
